Like-named read-outs stand apart in the source and are kept apart here.
Experiments:
[1] = system: peripheral blood neutrophils; experiment: Chemiluminescence (reactive oxidant production) of peripheral blood neutrophils stimulated with calcium ionophore; format: cell-based; conditions: Homo sapiens, Neutrophil, mean ± S.E.M.; for activity at 10000 µM: 10 mM zwitterionic compound, normal neutrophils, read-out: Chemiluminescence activity of normal neutrophils; for activity at 40000 µM: 40 mM taurine, read-out: Chemiluminesence production by neutrophils
From the text: Patients were selected with mild to moderate plaque-type psoriasis on the basis of clinical and histological evidence of disease. Normal volunteers were selected from laboratory personnel without personal or family history of inflammatory disease. Disease control groups included: a) patients with eczema, acne and dermatitis herpetiformis; and b) patients with Crohn's disease and ulcerative colitis. Blood samples from each subject were drawn into sodium heparin Vacutainers® (Vacutainer is a Trade Mark). The inflammatory cells (neutrophils) were isolated by dextran sedimentation and FICOLL-PAQUE®(FICOLL-PLAQUE is a Trade Mark) gradient centrifugation. Viability and purity were assessed by fluorescence microscopy, using ethidium bromide and acridine orange staining. […] Chemiluminescence activity of the peripheral blood neutrophils was tested using the method of Bloomfield, F. J. and Young, M. M. (Inflammation, (1982) 6, 257, hereby incorporated by reference), using calcium ionophore (2μ Molar) as stimulant instead of opsonized zymosan. Chemiluminescence is a measure of the production of reactive oxidants by neutrophils in response to an inflammatory stimulus. It was observed that there was significant reduction in chemiluminescence activity by neutrophils in the taurine-treated and HEPES-treated cells compared to control cells in all groups.

myeloperoxidase [2] = experiment: Myeloperoxidase activity of neutrophils after preincubation with zwitterion; format: cell-based, human; conditions: mean ± S.E.M.; for Myeloperoxidase activity of normal neutrophils: 10 mM zwitterionic compound; for Myeloperoxidase activity of neutrophils: 40 mM taurine
From the text: (§1) Patients were selected with mild to moderate plaque-type psoriasis on the basis of clinical and histological evidence of disease. Normal volunteers were selected from laboratory personnel without personal or family history of inflammatory disease. Disease control groups included: a) patients with eczema, acne and dermatitis herpetiformis; and b) patients with Crohn's disease and ulcerative colitis.
(§2) Blood samples from each subject were drawn into sodium heparin Vacutainers® (Vacutainer is a Trade Mark). The inflammatory cells (neutrophils) were isolated by dextran sedimentation and FICOLL-PAQUE®(FICOLL-PLAQUE is a Trade Mark) gradient centrifugation. Viability and purity were assessed by fluorescence microscopy, using ethidium bromide and acridine orange staining.

leukotriene B4 = experiment: Degradation of standard leukotriene B4 measured by radioimmunoassay; format: biochemical; conditions: data not shown
From the text: (§3) It was therefore proposed to test the hypothesis that HEPES could inactivate leukotriene B4 by indirect stimulation of MPO leading to increased production of hypochlorous acid from cellular hydrogen peroxide.

monocytes = experiment: Leukotriene B4 in stimulated monocytes; format: cell-based, human; conditions: preincubation with 10 mM HEPES or 40 mM taurine; data not shown
From the text: as §3

catalase = experiment: Catalase activity of neutrophils after preincubation; format: cell-based, human; conditions: neutrophils preincubated with HEPES or taurine; data not shown
[3] = system: carrageenan induced paw oedema; experiment: Carrageenan-induced paw oedema in rats; format: in vivo, rat; conditions: for percentage increase in paw volume: 1 h after carrageenan, mean ± S.E.M.; for reduction in paw oedema: versus control
Experimental: The studies were conducted on inbred Wistar strain albino rats (120-180 g) of either sex. The rats were housed in colony cages at an ambient temperature of 25°±2° C. and fed on standard pellet chow. The rats were anaesthetized using pentobarbitone sodium, their hind paws were marked and the volume measured. […] The control animals were injected with 10 μl of 0.9% saline solution. […] One hour following the carrageenan injection the hind paw volume was measured again. A 5 ml blood sample was taken from each animal into sodium heparin Vacutainers. Chemiluminescence activity was assayed in the PBMC isolated from each animal.
These studies were also conducted on inbred Wistar strain albino rats (120-180 g) of either sex. The rats were anaesthetized using pentobarbitone sodium prior to marking each hind paw and measuring paw volume. […] The control animals received 0.5 ml of 0.9% NaCl subcutaneously. 30 min after the injections were administered, paw oedema was induced using carrageenan. One hour following carrageenan administration the hind paw volume was measured. A 5 ml blood sample was taken from each animal into sodium heparin Vacutainers and used for chemiluminescence measurement.

neutrophils [4] = experiment: Leukotriene B4 in supernatants of stimulated neutrophils; format: cell-based, human; conditions: Homo sapiens, Neutrophil, 40 mM taurine, mean ± S.E.M., read-out: Leukotriene B4 production by neutrophils
From the text: as §1, §2, §3
For the methodology used in the in vitro studies hereinafter described reference should be made to McLoughlin, D. M. et al. Biochem. Soc. Trans. (1991) 19:73-78 hereby incorporated by reference, except where otherwise stated.

myeloperoxidase [5] = experiment: Binding of zwitterion to myeloperoxidase (preliminary studies)
neutrophils [6] = experiment: Hypochlorous acid production by neutrophils; format: cell-based; conditions: Homo sapiens, Neutrophil, 40 mM taurine, mean ± S.E.M.
From the text: as §1, §2

neutrophils [7] = experiment: Degranulation of lysosomal enzymes by neutrophils stimulated with calcium ionophore; format: cell-based, human; conditions: result in words; taurine data not shown
From the text: as §1, §2
Stimulation of the inflammatory process in neutrophils, not only activates the respiratory burst, but as a consequence, is also associated with release of lysosomal enzymes from the cells in a process called degranulation. Degranulation of lysosomal enzymes was stimulated in neutrophils from each group of subjects, using calcium ionophore as inflammatory stimulant.

`O=S(=O)(O)CCCN1CCN(CCO)CC1` [(H)EPPS, N-2-hydroxyethylpiperazine-N'3-propanesulphonic acid] was tested, and the activity at 10000 µM [1] was 50.9 ± 7.38%, the “Myeloperoxidase activity of normal neutrophils” value (myeloperoxidase [2]) was “marked effect on MPO activity” and the “Myeloperoxidase activity of normal neutrophils” value (myeloperoxidase [2]; 10000 µM) was 348 ± 15.1 percentage activity of control.

With `NC(=O)CNCCS(=O)(=O)O` [ACES, N-(2-acetamido)-2-aminoethanesulphonic acid] the activity at 10000 µM [1] was 12.9 ± 2.75%, the “Myeloperoxidase activity of normal neutrophils” value (myeloperoxidase [2]) was “marked effect on MPO activity” and the “Myeloperoxidase activity of normal neutrophils” value (myeloperoxidase [2]; listed as ACE, 10000 µM) was 166 ± 18.2 percentage activity of control.

In the case of `NC(=O)CN(CC(=O)O)CC(=O)O` [ADA, N-(2-acetamido)iminodiacetic acid], the activity at 10000 µM [1] is reported as 1.45 ± 0.27% and the “Myeloperoxidase activity of normal neutrophils” value (myeloperoxidase [2]) is reported as 214 ± 32.3 percentage activity of control.

With `O=S(=O)(O)CCN(CCO)CCO` [BES, N,N-bis(2-hydroxyethyl)-2-aminoethanesulphonic acid] the activity at 10000 µM [1] was 4.95 ± 0.93%, the “Myeloperoxidase activity of normal neutrophils” value (myeloperoxidase [2]) was “lesser effect on MPO stimulation” and the “Myeloperoxidase activity of normal neutrophils” value (myeloperoxidase [2]; 10000 µM) was 138 ± 14.1 percentage activity of control.

In the case of `O=S(=O)(O)CCCNC1CCCCC1` [CAPS, 3-(cyclohexylamino)propanesulphonic acid], the activity at 10000 µM [1] is reported as 87.9 ± 8.87%, the “Myeloperoxidase activity of normal neutrophils” value (myeloperoxidase [2]) is reported as “little effect” and the “Myeloperoxidase activity of normal neutrophils” value (myeloperoxidase [2]; 10000 µM) is reported as 115 ± 3.6 percentage activity of control.

With `O=S(=O)(O)CCNC1CCCCC1` [CHES, 2-(cyclohexylamino)ethanesulphonic acid] the activity at 10000 µM [1] was 68.4 ± 6.36%, the “Myeloperoxidase activity of normal neutrophils” value (myeloperoxidase [2]) was “little effect” and the “Myeloperoxidase activity of normal neutrophils” value (myeloperoxidase [2]; 10000 µM) was 120 ± 4.8 percentage activity of control.

With `O=S(=O)(O)CCN1CCOCC1` [MES, 2(N-morpholino)ethanesulphonic acid] the activity at 10000 µM [1] was 3.15 ± 0.67%, the “Myeloperoxidase activity of normal neutrophils” value (myeloperoxidase [2]) was “marked effect on MPO activity” and the “Myeloperoxidase activity of normal neutrophils” value (myeloperoxidase [2]; 10000 µM) was 264 ± 15.9 percentage activity of control.

With `O=S(=O)(O)CCCN1CCOCC1` [MOPS, 3-(N-morpholino)propanesulphonic] the activity at 10000 µM [1] was 7.27 ± 1.53%, the “Myeloperoxidase activity of normal neutrophils” value (myeloperoxidase [2]) was “lesser effect on MPO stimulation” and the “Myeloperoxidase activity of normal neutrophils” value (myeloperoxidase [2]; 10000 µM) was 134 ± 13.4 percentage activity of control.

For `O=S(=O)(O)CCN1CCN(CCS(=O)(=O)O)CC1` [PIPES, piperazine-N,N'bis(2-ethanesulphonic acid], the activity at 10000 µM [1] was 4.08 ± 0.97%, the “Myeloperoxidase activity of normal neutrophils” value (myeloperoxidase [2]) was “marked effect on MPO activity” and the “Myeloperoxidase activity of normal neutrophils” value (myeloperoxidase [2]; 10000 µM) was 199 ± 23.1 percentage activity of control.

With `O=S(=O)(O)CCNC(CO)(CO)CO` [TES, N-N[tris(hydroxymethyl)-methyl]-2-aminoethanesulphonic acid] the activity at 10000 µM [1] was 15.6 ± 2.41%, the “Myeloperoxidase activity of normal neutrophils” value (myeloperoxidase [2]) was “lesser effect on MPO stimulation” and the “Myeloperoxidase activity of normal neutrophils” value (myeloperoxidase [2]; 10000 µM) was 129 ± 20.1 percentage activity of control.

With `OCl` [hypochlorous acid, reference compound] the “degradation of standard leukotriene B4” value (leukotriene B4) was “cause degradation of standard leukotriene B4”.

With `O=S(=O)(O)CCNCl` [taurine chloramine] the “degradation of standard leukotriene B4” value (leukotriene B4) was “cause degradation of standard leukotriene B4”.

With `NCCS(=O)(=O)O` [taurine, 2-aminoethanesulphonic acid] the “reduction of leukotriene B4 in monocytes” value (monocytes) was “also demonstrated in monocytes”, the “effect on catalase activity” value (catalase) was “no effect on catalase activity” and the activity at 40000 µM ([1]; Normal) was 12.7 ± 1.77%. It also gave an activity at 40000 µM ([1]; Psoriasis) of 15.5 ± 2.1%, an activity at 40000 µM ([1]; disease controls (a)) of 20.3 ± 1.85% and an activity at 40000 µM ([1]; disease controls (b)) of 30.5 ± 8.6%. The “percentage increase in paw volume” value ([3]; I.C.V. 50 μg taurine) was 30 ± 4 percentage increase in paw volume, the “percentage increase in paw volume” value ([3]; I.C.V. 500 μg taurine) was 21 ± 8 percentage increase in paw volume and the “percentage increase in paw volume” value ([3]; S.C. 500 μg taurine) was 27 ± 2 percentage increase in paw volume. The “reduction in paw oedema” value ([3]; i.c.v. 50 μg taurine) was 21%, the “reduction in paw oedema” value ([3]; i.c.v. 500 μg taurine) was 54% and the “reduction in paw oedema” value ([3]; s.c. 500 μg taurine) was 18%. The activity at 40000 µM (neutrophils [4]; Normal) was 64.8 ± 8.3%, the activity at 40000 µM (neutrophils [4]; Psoriasis) was 66.5 ± 10.9% and the activity at 40000 µM (neutrophils [4]; disease controls (a)) was 73.3 ± 9.95%. The activity at 40000 µM (neutrophils [4]; disease controls (b)) was 78 ± 8.6%, the “Myeloperoxidase activity of neutrophils” value (myeloperoxidase [2]; Normal) was 564 ± 38.3 percentage activity of control and the “Myeloperoxidase activity of neutrophils” value (myeloperoxidase [2]; Psoriasis) was 591 ± 61.8 percentage activity of control. The “Myeloperoxidase activity of neutrophils” value (myeloperoxidase [2]; disease controls (a)) was 473 ± 33.7 percentage activity of control, the “Myeloperoxidase activity of neutrophils” value (myeloperoxidase [2]; disease controls (b)) was 485 ± 49.2 percentage activity of control and the “binding to the enzyme (MPO)” value (myeloperoxidase [5]) was “did not bind to the enzyme”. It also gave an activity at 40000 µM (neutrophils [6]; Normal) of 152 ± 14.1%, an activity at 40000 µM (neutrophils [6]; Psoriasis) of 167 ± 34.7% and an activity at 40000 µM (neutrophils [6]; disease controls (a)) of 142 ± 32.1%. The “degranulation by preincubated neutrophils compared to control cells” value (neutrophils [7]) was “no significant difference in degranulation”.

Source: patent US5248680A, “Zwitterionic compounds and their n-halo derivatives for use in the treatment of clinical conditions” (Bloomfield D.A., priority 1990, dated 1993)
